Test results as given in patent US20240361324A1, “POINT OF SERVICE METHOD OF DETECTING, DIAGNOSING AND FOLLOWING CANCER AND OTHER PROLIFERATIVE CONDITIONS” (priority 2021, published 2024).
Entries after “also recorded” stand apart in the source; their conditions may differ.

How the values were obtained:
Type in all cases: cell-based, human
p80 [1] = assay: Western blotting of p80 in PMA-treated THP-1 cells; conditions: 10 ng/ml, 5 days
Method: (§1) FIG. 11. (Top): Light microscopy of THP-1 cells after treatment of PMA. A. untreated THP-1 cells; B. THP-1 cells treated with 10 ng for five days. (Middle): Western blotting analysis of p80 in PMA-treated THP-1 cells. M: protein markers, Lane 1. SKOV3 (OVCA) as p80 positive control, Lane 2. Untreated THP-1 cells, supernatant from the cell lysate. Lane 3. Untreated THP-1 cell, pellet from the cell lysate. Lane 4. 5 day-PMA (10 ng/ml) treated THP-1 cells, supernatant from the cell lysate. Lane 5:5 day-PMA (10ng/ml) treated THP-1 cells, pellet from the cell lysate. Lane 6: human brain protein extract as 350 kDa MAP1a control. Lanes 7-12 are duplications of Lane 1-7. Note: Before PMA treatment there is a thick 80 kDa band in Lane 2; after 5 days of PMA treatment, the 80 kDa band became undetectable. (Bottom): IF straining of THP-1 cells after 5 days treatment with PMA. A. Untreated THP-1 cells; B. PMA (10 ng/ml) treated THP-1 cells.
(§2) Terminal Differentiation of THP-1 leukemia cells was associated with decreased expression of p80. […] The slide was studied by a fluorescence microscope for the presence of the P80 and photographed. […] Before treatment with PMA, the cells were round with bright fluorescence (FIG. 11-a Bottom); after PMA treatment, the cells grew processes with no IF of P80 (FIG. 11b Bottom). […]

p80 [2] = assay: Immunofluorescence staining of p80 in PMA-treated THP-1 cells; conditions: 10 ng/ml, 5 days
Method: as §1, §2

[3] = tested on: THP-1 promonocytic leukemia cell line; assay: Cell morphology/differentiation of THP-1 leukemia cells after PMA; conditions: THP-1 cells; 10 ng/ml
Method: as §1, §2

p80 [4] = assay: Western analysis of p80 expression in drug-treated SKOV3 cells; conditions: for expression of p80 (Western blotting): OVCA cells, calculated as p80 per mg protein or DNA; for expression of p80 (Western analysis): SKOV3, 24-hour treatment, compared to control DMSO-treated cells
Method: FIG. 9. […] Rat brain extract was used as a positive control (lane e). MW=Molecular weight markers (High Range SDS-PAGE standard). Actin was detected as loading control.
Western Blot Analysis: The cell monolayer was lysed with lysis buffer containing six protease inhibitors (Protease Cocktail; Roche), incubated on ice for 10 min, and scraped with a rubber policeman. Cell lysate was collected and centrifuged at 12,000× g for 30 min. Supernatants were saved for SDS-PAGE and Western blot analysis, and pellets were extracted by SDS-PAGE sample buffer (minus reducing reagent). The total amount of protein in each extract was determined by the bicinchoninic acid (BCA) method. SDS-PAGE was performed, loading the same amount of total protein in the same volume into each sample well, using commercially available precast 4-15% gradient SDS-polyacrylamide gels (Bio Rad). High range SDS-PAGE standard (Bio Rad) was run as a standard. After electrophoresis, proteins were transferred onto a PVDF membrane. After transfer, the membrane was incubated with primary antibody, then washed, and incubated with peroxidase-labeled second antibody. Signals were visualized on Hyperfilm-ECL by the ECL-reagents (Amersham).
SDS-PAGE and Western Blot Analysis: The cell monolayer was lysed with lysis buffer containing 6 protease inhibitors (Boehringer-Mannheim). Cell lysate was collected by centrifugation after the supernatants were saved. The pellet was extracted by boiling with SDS-containing buffer. The total amount of protein in each extract was determined. SDS-PAGE was performed by loading the same amount of total protein into each sample well. After electrophoresis, proteins were electro-transferred onto a PVDF membrane. Then, the membrane was incubated with primary antibody, washed, and incubated with peroxidase conjugated horse anti-mouse IgG (H+L). Signals were developed with an enhanced luminescence reagent (ECL, Amersham) and visualized on Hyper ECL-Film. (Amersham). Signal density was measured and analyzed by a densitometer. Western analysis can furnish information on immunoreactivity and molecular size; therefore, this technique was often used for the first-line screening of the presence of p80. However, if there was any ambiguity about the cross-reactivity, the results were double checked with Northern blotting or RT-PCR with specific primers.
(§3) Rationale and Experiments: In order to assess the effects of various classes of chemotherapy on p80-containing OVCA cells and to elucidate the relationship between p80, EM, and OVCA proliferation, EM or tamoxifen or the NADPH-oxidase inhibitor diphenyleneiodonium treatment was carried out. […] The treatment was followed with Western blotting to determine the effect of each agent on p80 expression. To control for reduced cell numbers or changes in cell volume as confounding factors, results were calculated on the basis of p80 per mg protein or DNA in the cells.

OVCA cell lines [5] = assay: MTT assay of OVCA cell proliferation; conditions: data not shown; for cell proliferation (MTT assay): all the cell lines, same doses as the p80 experiment
Method: as §3
To further test the relationship between p80 and OVCA proliferation, OVCA cells were treated with EGF and measured proliferation (MTT assay) and the expression of p80 (Western Blotting). Again, results were calculated on a per mg protein or DNA basis to avoid confounding. […] (2) E-M/ECC's and their roles as specific antimicrotubular agents will be tested.

p80 [6] = assay: SDS-PAGE/Western blot of p80 in BIX3 OVCA cells after EGF treatment; conditions: per mg protein or DNA basis, compared to untreated control
Method: FIG. 10. SDS-PAGE/Western blot analysis of p80 in BIX3 OVCA cells following treatment with EGF, (see text). The lanes are as follows: (a) protein standards, (b) control-untreated, (c) EGF-treated. The density of p80 expression was increased after EGF treatment. Actin was detected as loading control.
Stimulation of expression of p80 by epidermal growth factor (EGF). […] To further test the relationship between p80 and OVCA proliferation, OVCA cells were treated with EGF and measured proliferation (MTT assay) and the expression of p80 (Western Blotting). Again, results were calculated on a per mg protein or DNA basis to avoid confounding. Findings: (1) Increasing doses of EGF (10-50 ng/ml) stimulated OVCA proliferation in comparison to untreated controls (data not shown). […] (2) E-M/ECC's and their roles as specific antimicrotubular agents will be tested. Alternative approaches, such as targeting this molecule by using antisense DNA/RNA to block its expression could be helpful in elucidating whether the expression of this protein is a cause or an effect of OVCA proliferation. Furthermore, the antisense approach may also lead to the development of a novel modality for OVCA therapy targeting p80.

OVCA cell lines [7] = assay: 3H-thymidine uptake in cultured OVCA cells; conditions: all OVCA cell lines; 1-100 μg/ml
Description: Culture of OVCA cell lines and cell cultures. Rationale: In order to determine the efficacy of inhibiting human OVCA cells with drugs, four extensively characterized OVCA cell lines, three in-house lines, DK2NMA, BIXLER, BIX3 (all courtesy of Drs. S. Chambers and B. Kacinski), (Peter B. Kaufman, William, Wu, Donghern Kim, Leland J. Cseke. Molecular Biology and Medicine. CRC Press inc., Boca Raton, Florida Chapter 12:289-304, 1995) and SKOV3, obtained from American Type Culture Collection, were established in mono-layer culture. Experiments: In preparation for drug treatment, cell suspensions were thor-oughly dispersed, precisely counted and then seeded into another flask at the desired cell den-sity. Conclusion: The cell lines were established, and test drugs shown to predictably affect the cells. Results were produced that meet stringent reliability criteria, including precision i.e., small variability between replicates.
Inhibition of OVCA cell proliferation by EM (estrogen mustard). Rationale: Clini-cally, EM has modest systemic toxicity and has been partially effective in the treatment of advanced prostatic carcinoma. […] Therefore, the effect of EM on OVCA cells was studied. Experiments: 3H-thymidine uptake was used to test the effect of EM against cultured OVCA cells in a wide range of concentrations (1-100 μg/ml). […]

OVCA cell lines [8] = assay: Flow cytometry of the cell cycle distribution of OVCA; conditions: all OVCA cell lines; 24 hours treatment; 1-100 μgm/ml; compared to control DMSO-treated cells
Description: Effect of EM on the cell cycle of OVCA. Rationale: Since EM's antiproliferative activity could be due to the disruption of mitosis and other crucial microtubule-dependent cellular functions, flow cytometry was used to investigate the effect of EM on the cell cycle distribution of OVCA. Experiments: Following EM administration (1-100/ μgm/ml) the flasks were trypsinized and all cells subjected to flow cytometry in the Yale Cancer Center Core laboratory. […] Conclusions: (1) EM induced cell cycle synchronization at G2/M. This was consistent with an action on OVCA microtubule associated proteins (MAP's). (2) Synchronization in G2/M raised the possibility of radio-sensitization (Barnes WM. PCR amplification of up to 35-Kb DNA with high fidelity and high yield from lambda bacteriophage templates. Proc Natl Acad Sci USA March 15; 91 (6): 2216-20, 1994; Mandelkow E, Mandelkow E-M. Microtubules and microtubule-associated proteins. Current Opinion in Cell Biology 7:72-81, 1995.

Molecule	expression of p80 (Western blotting) (p80 [4])	cell proliferation (MTT assay) (OVCA cell lines [5])	expression of p80 (Western analysis) (p80 [4]; 10 μM)	other results
CCCCCCCCCCCCCC(=O)O[C@@H]1[C@@H](C)[C@@]2(O)[C@@H](C=C(CO)C[C@]3(O)C(=O)C(C)=C[C@@H]23)[C@@H]2C(C)(C)[C@]12OC(C)=O [PMA, phorbol myristic acetate]				p80 (80 kDa band) on Western blots (p80 [1]): disappeared; also recorded: undetectable; immunofluorescence (IF) of p80 (p80 [2]): no IF of P80; differentiation / cell morphology [3]: began to differentiate to monocytes/macrophages
CC/C(=C(\c1ccccc1)c1ccc(OCCN(C)C)cc1)c1ccccc1 [TMX, tamoxifen]	significantly inhibited	significantly decreased		expression of p80 (Western analysis) (p80 [4]; 100 μM): significant decreases
epidermal growth factor (NSDSECPLSHDGYCLHDGVCMYIEALDKYACNCVVGYIGERCQYRDLKWWELR; Epidermal growth factor; UniProt P01133 971-1023, looked up) [EGF, growth factor; ovarian cancer cells have EGF receptors]				OVCA proliferation (MTT assay) (OVCA cell lines [5]; 10-50 ng/ml, increasing doses, compared to untreated controls): stimulated; expression of p80 (Western blotting) (p80 [6]): increased significantly
c1ccc2c(c1)[I+]c1ccccc1-2 [DPI, diphenyleneiodonium]	significantly inhibited	significantly decreased	significant decreases	
C[C@]12CC[C@@H]3c4ccc(OC(=O)N(CCCl)CCCl)cc4CC[C@H]3[C@@H]1CC[C@@H]2O [EM, estrogen mustard]	significantly inhibited	significantly decreased	significant decreases	3H-thymidine incorporation (OVCA cell lines [7]): marked, dose-dependent inhibition; percentages of cells in G2/M phase (OVCA cell lines [8]): significant increase
